Article PMC8688152, “Distinct classes of potassium channels fused to GPCRs as electrical signaling biosensors” (Cell Reports Methods, 2021)

Experiments:
unfused Kcv = unfused Kcv (Paramecium bursaria Chlorella virus 1, UniProt Q84568); test: TEVC controls: unfused Kcv co-expressed with M2, and Kcv alone; assay type: cell-based; conditions: co-expression of unfused M2 and Kcv, and Kcv alone
Procedure: (§1) Microelectrodes were filled with […]. […] The membrane voltage was clamped to −50 mV.

M2_T-09-40 = biological target: T1, M2_T-09-40 (UniProt P08172+P97438); test: TEVC recording of M2_T-09-40 in Xenopus oocytes; assay type: cell-based, human (M2), mouse (TREK-1); conditions: ACh 5 μM
T1 construct: expressed in transfected cells; host or cells: Xenopus oocytes (mRNA injection)
Procedure: as §1

M2_T-00-43 = biological target: T2, M2_T-00-43 (UniProt P08172+P97438); test: TEVC recording of M2_T-00-43 ICCR in Xenopus oocytes; assay type: cell-based, human (M2), mouse (TREK-1); design: full-length (−00) or M2 deleted of its last nine residues (−09) in the indicated ICCRs; expressed in transfected cells; host or cells: Xenopus oocytes (mRNA injection)
T2 sequence (P08172+P97438 with tags, fused parts or gaps): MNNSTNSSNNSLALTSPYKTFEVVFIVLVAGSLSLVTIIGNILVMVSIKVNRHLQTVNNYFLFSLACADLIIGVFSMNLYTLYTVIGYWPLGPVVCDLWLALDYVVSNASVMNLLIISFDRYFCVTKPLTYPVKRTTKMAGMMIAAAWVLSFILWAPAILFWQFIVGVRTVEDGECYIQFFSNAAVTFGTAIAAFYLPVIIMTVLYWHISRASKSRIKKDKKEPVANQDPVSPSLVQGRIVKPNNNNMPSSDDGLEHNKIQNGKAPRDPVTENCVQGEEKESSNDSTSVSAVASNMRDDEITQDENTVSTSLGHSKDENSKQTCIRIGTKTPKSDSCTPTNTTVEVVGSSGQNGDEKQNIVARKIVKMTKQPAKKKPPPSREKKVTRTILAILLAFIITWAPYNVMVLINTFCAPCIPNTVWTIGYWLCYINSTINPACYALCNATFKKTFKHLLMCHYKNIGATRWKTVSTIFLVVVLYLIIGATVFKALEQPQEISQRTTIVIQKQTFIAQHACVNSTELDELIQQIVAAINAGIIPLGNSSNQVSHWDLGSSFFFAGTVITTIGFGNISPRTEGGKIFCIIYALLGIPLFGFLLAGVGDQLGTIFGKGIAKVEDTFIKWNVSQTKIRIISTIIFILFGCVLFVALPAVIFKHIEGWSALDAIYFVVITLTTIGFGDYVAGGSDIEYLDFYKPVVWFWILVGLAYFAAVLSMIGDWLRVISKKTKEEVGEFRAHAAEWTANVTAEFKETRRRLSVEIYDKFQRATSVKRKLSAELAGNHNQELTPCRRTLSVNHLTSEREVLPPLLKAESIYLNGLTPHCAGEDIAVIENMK
Procedure: Xenopus oocytes were prepared as previously reported ([Moreau et al., 2008]). Briefly, after surgical retrieval, the oocytes were defolliculated by type 1A collagenase. Each oocyte was injected with 50 nl of RNAse-free water containing the desired mRNAs. The mRNA quantities used per oocyte were: ICCR with Kcv, 2.7 ng (M2_Kcv and D2_Kcv) and 2.9 ng (OXTR_Kcv); ICCR with mTREK-1, 4.2 ng; ICCR with Kir6.2, 4.3 ng; M2, 2.3 ng; D2, 2.2 ng; Kir3.4T, 2.2 ng; Kcv 0.46 ng and mTREK-1, 2.1 ng. Microinjected oocytes were incubated 2 to 3 days at 19°C in modified-Barth's solution (in mM: 1 KCl, 0.82 MgSO4, 88 NaCl, 2.4 NaHCO3, 0.41 CaCl2, 16 HEPES, pH 7.4) supplemented with 100 U.ml^−1 of penicillin and streptomycin and 0.1 mg.mL^−1 of gentamycin. Animal handling and experiments fully conformed to European regulations and were approved by the French Ministry of Higher Education and Research (APAFIS#4420-2016030813053199 v4 to CM). Authorization of the animal facility has been delivered by the Prefect of Isere (Authorization #D 38 185 10 001).
Two-electrode voltage-clamp (TEVC) recordings were performed automatically with HiClamp robots (MultiChannel Systems). These TEVC robots rapidly change the applied solutions by transferring the oocytes in different wells of a 96-well plate. […] Microelectrodes were filled with […]. During recordings, oocytes were incubated in low potassium concentration buffer (ND96, in mM: 96 NaCl, 2 KCl, 1.8 CaCl2, 1 MgCl2, 5 HEPES, pH 7.4 supplemented with 0.3 niflumic acid), and in high potassium buffer (in mM: 91 KCl, 1.8 CaCl2, 1 MgCl2, 5 HEPES, 0.3 niflumic acid, pH 7.4). The membrane voltage was clamped to −50 mV. Ligands and BaCl2 were diluted in the high potassium buffer. […] Ligand effects were measured in high potassium concentration buffer with the membrane potential clamped to −50 mV and at 19°C.
Change of potassium current induced by ligand was calculated either with the barium-sensitive currents as a 0-reference for Kcv-based ICCRs or with the currents in ND96 for mTREK-1 ICCRs. Softwares created by Michel Vivaudou ([Vivaudou, 2019]) were used to extract the raw data.

M2_T-09-43 = biological target: T3, M2_T-09-43 (UniProt P08172+P97438); test: TEVC recording of M2_T-09-43 in Xenopus oocytes; assay type: cell-based, human (M2), mouse (TREK-1); conditions: ACh 5 μM
T3 construct: expressed in transfected cells; host or cells: Xenopus oocytes (mRNA injection); gene synthesized by ATG:biosynthetics
Procedure: as §1

M2_Kcv-09-03 = biological target: T4, M2_Kcv-09-03 (UniProt P08172+Q84568); test: TEVC recording of M2_Kcv-09-03 ICCR expressed in Xenopus oocytes; assay type: cell-based, human (M2), Paramecium bursaria chlorella virus 1 (Kcv)
T4 construct: expressed in transfected cells; host or cells: Xenopus oocytes (mRNA injection)
T4 sequence (P08172+Q84568 with tags, fused parts or gaps): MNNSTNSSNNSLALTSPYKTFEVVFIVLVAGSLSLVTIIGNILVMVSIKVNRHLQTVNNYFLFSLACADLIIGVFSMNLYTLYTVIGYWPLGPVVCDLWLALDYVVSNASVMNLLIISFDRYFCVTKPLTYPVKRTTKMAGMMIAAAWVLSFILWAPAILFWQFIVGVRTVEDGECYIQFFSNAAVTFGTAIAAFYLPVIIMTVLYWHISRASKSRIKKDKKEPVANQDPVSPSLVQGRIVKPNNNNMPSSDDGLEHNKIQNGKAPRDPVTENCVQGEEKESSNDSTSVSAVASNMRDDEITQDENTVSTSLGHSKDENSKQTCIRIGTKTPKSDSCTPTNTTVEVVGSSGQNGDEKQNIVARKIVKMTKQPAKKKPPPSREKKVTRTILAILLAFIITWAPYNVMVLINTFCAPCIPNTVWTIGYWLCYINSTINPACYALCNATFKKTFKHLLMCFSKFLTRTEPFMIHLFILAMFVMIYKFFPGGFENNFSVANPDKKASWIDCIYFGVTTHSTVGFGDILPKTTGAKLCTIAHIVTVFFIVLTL
Procedure: as §1

T1 sequence (P08172+P97438 fused): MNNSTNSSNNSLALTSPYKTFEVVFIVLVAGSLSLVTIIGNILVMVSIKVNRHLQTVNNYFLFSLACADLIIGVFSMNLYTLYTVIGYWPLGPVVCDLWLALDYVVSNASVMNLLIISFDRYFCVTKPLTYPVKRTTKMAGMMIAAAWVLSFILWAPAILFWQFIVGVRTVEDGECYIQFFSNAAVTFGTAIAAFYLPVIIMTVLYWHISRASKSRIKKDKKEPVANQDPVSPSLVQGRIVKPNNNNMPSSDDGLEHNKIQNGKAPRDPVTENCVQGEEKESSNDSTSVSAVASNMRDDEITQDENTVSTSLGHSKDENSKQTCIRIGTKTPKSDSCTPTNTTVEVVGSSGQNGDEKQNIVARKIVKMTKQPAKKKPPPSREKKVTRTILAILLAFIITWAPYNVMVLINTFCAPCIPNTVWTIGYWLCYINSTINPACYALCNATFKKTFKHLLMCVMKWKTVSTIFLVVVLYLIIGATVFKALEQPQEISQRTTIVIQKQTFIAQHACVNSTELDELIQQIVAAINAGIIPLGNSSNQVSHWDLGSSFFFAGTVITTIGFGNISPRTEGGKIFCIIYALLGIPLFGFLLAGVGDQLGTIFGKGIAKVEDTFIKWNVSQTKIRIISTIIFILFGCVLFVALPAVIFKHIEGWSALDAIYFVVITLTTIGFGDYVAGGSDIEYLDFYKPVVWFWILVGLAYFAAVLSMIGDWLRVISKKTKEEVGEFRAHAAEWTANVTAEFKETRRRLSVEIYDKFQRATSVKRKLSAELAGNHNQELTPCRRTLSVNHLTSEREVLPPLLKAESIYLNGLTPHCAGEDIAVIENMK
T3 sequence (P08172+P97438 fused): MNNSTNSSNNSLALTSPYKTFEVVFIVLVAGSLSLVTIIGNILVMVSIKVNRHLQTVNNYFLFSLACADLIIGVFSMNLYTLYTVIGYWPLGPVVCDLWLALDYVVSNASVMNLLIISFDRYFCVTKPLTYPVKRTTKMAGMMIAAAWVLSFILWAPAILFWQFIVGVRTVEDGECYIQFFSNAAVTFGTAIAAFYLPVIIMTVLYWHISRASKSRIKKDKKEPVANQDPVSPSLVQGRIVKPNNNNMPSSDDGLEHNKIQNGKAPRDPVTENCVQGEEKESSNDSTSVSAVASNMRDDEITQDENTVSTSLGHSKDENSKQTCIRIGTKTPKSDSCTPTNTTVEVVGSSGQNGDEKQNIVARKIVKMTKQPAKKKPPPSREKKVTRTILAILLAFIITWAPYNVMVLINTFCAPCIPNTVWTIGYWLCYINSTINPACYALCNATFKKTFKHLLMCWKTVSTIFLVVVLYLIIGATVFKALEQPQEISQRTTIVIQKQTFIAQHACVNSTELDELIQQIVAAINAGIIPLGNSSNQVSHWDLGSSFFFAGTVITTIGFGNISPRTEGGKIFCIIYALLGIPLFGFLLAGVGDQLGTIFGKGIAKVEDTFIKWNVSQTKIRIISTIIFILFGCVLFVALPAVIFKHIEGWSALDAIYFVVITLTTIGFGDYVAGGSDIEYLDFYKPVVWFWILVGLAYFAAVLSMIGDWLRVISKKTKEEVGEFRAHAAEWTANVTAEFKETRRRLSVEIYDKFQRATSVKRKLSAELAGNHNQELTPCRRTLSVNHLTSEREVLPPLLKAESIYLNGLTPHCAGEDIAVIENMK

CC(=O)OCC[N+](C)(C)C [ACh, acetylcholine] was tested, and the “regulation of unfused Kcv by ACh” value (unfused Kcv) was “absence of regulation”, the “regulation of M2_T-09-40 by ACh” value (M2_T-09-40) was “no significant regulation” and the “Hill coefficient (nH) on M2_T-00-43” value (M2_T-00-43) was 0.76. The “activation: % of current change induced by ACh 5 μM on M2_T-00-43” value (M2_T-00-43) was 49.9% ± 5.1%, the “activation: % of current change induced by ACh 5 μM on M2_T-00-43 co-expressed with PTX” value (M2_T-00-43; 5 μM, co-injection of mRNA for pertussis toxin S1 subunit, mean ± SEM) was 49.3% ± 4.4% and the “regulation of M2_T-09-43 by ACh” value (M2_T-09-43) was “no significant regulation”. The “Hill coefficient (nH) on M2_Kcv-09-03” value (M2_Kcv-09-03; concentration-effect curve, TEVC) was 0.37 and the inhibition at 5 µM (M2_Kcv-09-03; read-out: inhibition: % of current change induced by ACh 5 μM on M2_Kcv-09-03, 5 μM, Xenopus oocytes, 91 mM K+, Vm = −50 mV, printed as inhibition, mean ± SEM) was 53.4%.
